According to US5959145A, “Fatty acid analog enzyme substrates” (priority 1993, dated 1999):
Entries after “also recorded” stand apart in the source; their conditions may differ. No end group written: not given here. *: point of attachment. 11‑(ethylthio)undecanoyl = CCSCCCCCCCCCCC(=O)*; 125I = [125I]*

How the values were obtained:
[1] = C18 reverse phase HPLC elution of fatty acyl peptides (hydrophobicity); type: physicochemical; conditions: for elution earlier than corresponding myristoyl-peptide: C-18 reverse phase HPLC, FIG. 2; for Elution Time: C18 reverse phase HPLC, acyl derivative of GNAAS[125I]YRR, Table 2
Experimental: The fatty acid analog acyl-peptide eluted 7 minutes earlier than the corresponding myristoyl peptide. The free peptide elutes in the void volume (3-5minutes).
This difference was evident when the HPLC elution characteristics of fatty acyl peptides were examined. The elution time of a particular acyl-peptide depends strongly on the peptide sequence as well as on the acyl chain attached to that peptide. For example, the elution times of fatty acyl derivatives of GNAAAARR are (in minutes) decanoic acid, 9; dodecanoic acid, 18; myristic acid, 24; and palmitic acid, 30. Elution times for fatty acyl derivatives of GNAAS[^125 I]YRR are 23 and 28 minutes for C12 and C14 fatty acids, respectively (FIG. 2). […] Such a change could alter the biological activity of myristoyl proteins.
(§1) For these Examples, each analog synthesized is characterized by ^1 H and ^13 C NMR as well as mass spectroscopy. The analogs are then characterized kinetically as NMT substrates. Briefly, fatty acid analogs are converted to their CoA esters with Pseudomonas CoA ligase and incubated with the iodinated peptide GNAAS[^125 I]YRR and a source of NMT. […] The radiolabelled peptide is then used at concentrations which will lead to 50% enzyme saturation (i.e., at its Km) for the determination of fatty acid analog kinetic characteristics. Representative analogs with sulfur or oxygen in the backbone of the fatty acid chain serve as good substrates for NMT in vitro and will compete for incorporation of ^3 H labelled myri-state into yeast proteins in vivo. In addition, these analogs differ markedly in hydrophobicity from myri-state as measured both by C18 reverse phase HPLC elution profiles and by 2-octanol/water partition coefficients. The analog CH3 O(CH2)11 COOH, for example, partitions into water 20 fold better than myristate. It is believed that these analogs will be incorporated into mammalian acylproteins in vivo and that their incorporation into these proteins will drastically alter protein processing or targeting. It is further believed that the incorporation of fatty acid analogs of both myristate and palmitate into ester linked and phosphatidyl inositol glycan linked acylproteins will also dramatically alter their properties. Since many viral proteins and oncogenes are acylated, these compounds represent a new class of potential antiviral and antineoplastic agents.

[2] = system: wheat germ NMT; assay: in vitro myristoylation assay with partially purified wheat germ NMT; type: biochemical
Experimental: Myristoyl CoA and fatty acid analog CoA were generated by incubation of the fatty acid or analog with CoA, ATP and CoA ligase. This reaction mixture was added to wheat germ NMT and Gly-Asn-Ala-Ala-Ser- [^125 I]Tyr-Arg-Arg in the presence of 0.03% Triton® X-100. Reaction products were characterized by reverse phase HPLC and gamma counting.
The invention is illustrated in greater detail in the following Examples 1 to 15 by the synthesis and testing of representative compounds of the invention as myristoylating enzyme substrates. Accordingly, the invention is first illustrated in Examples 1 to 5 by the chemical synthesis of a sulfur-containing analog of myristic acid, namely 11-(ethylthio)undecanoicacid, CH3 CH2 --S--(CH2)10 COOH, which is then tested in vitro as a wheat germ NMT substrate. Wheat germ NMT is a protein similar to yeast NMT. The purity and chemical identity of the synthesized compound were examined using ^1 H and ^13 C NMR as well as mass spectroscopy. The assay that was used to characterize the substrate specificity of wheat germ NMT measures the rate of attachment of a radiolabelled fatty acid to an unlabelled peptide. The fatty acid analog synthesized was nonradioactive.
Characterization of Partially Purified Wheat Germ NMT--Assays for NMT activity were performed using a procedure detailed previously by Towler and Glaser, Proc. Natl. Acad. Sci. USA 83, 2812-2816 (1986). Briefly, the in vitro assay measures the transfer of radiolabelled fatty acid from acyl CoA to a synthetic peptide substrate. The acylpeptide product is identified by reverse phase HPLC. Time and enzyme dependence were evaluated by varying the reaction time or the enzyme concentration. […] Fatty acid specificity was examined essentially as described by Towler et al., J. Biol. Chem. 262, 1030-1036 (1987), except that the peptide Gly-Ser-Ser-Lys-Ser-Lys-Pro-Lys rather than Gly-Asn-Ala-Ala-Ala-Ala-Arg-Arg was used to compare palmitate and myristate utilization by wheat germ NMT. This was necessary because of the presence of a large, peptide-independent peak which co-eluted with a palmitoyl-Gly-Asn-Ala-Ala-Ala-Ala-Arg-Arg standard. [^3 H]Palmitate and [^3 H]myristate were used in this comparison. [^14 C]fatty acids were used to compare C-10, C-12 and C-14 chain lengths. Fatty acyl CoA concentrations in these assays were determined by a modification of the method of Hosaka et al., Methods Enzymol. 71, 325-333 (1981).
Characterization of the Fatty Acid Analog--Gly-Asn-Ala-Ala-Ser-[^125 I]Tyr-Arg-Arg as prepared in Example 2, above, was tested in an in vitro myristoylation system which was modified from that used with radiolabelled fatty acids. […] 20-fold more wheat germ NMT (480-fold purified as in Example 3, above) was used for these assays than for assays which employed [^3 H] myristate. […] Double reciprocal plots were generated for the iodinated peptide with both myristic acid and the sulfur analog by altering the peptide concentration in the presence of a constant amount of fatty acid or analog. […] The assays contained 0.03% Triton X-100 to maintain the solubility of the fatty acids.

[3] = target: T1, yeast NMT (Saccharomyces cerevisiae, UniProt P14743); assay: kinetic characterisation of fatty acid analogs as yeast NMT substrates; type: biochemical; conditions: for Peptide Vm: peptide GNAAS[125I]YRR varied, fatty acid analog at 15 μM; for Peptide Vm / Acyl CoA Vm: myristate control = 100%; for Acyl CoA Vm / Km: radiolabelled peptide at its Km, analog varied; for Km: read-out: Acyl CoA Km
T1 construct: 11,000-fold purified preparation of yeast NMT; endogenous in cells; host or cells: yeast (enzyme purified from yeast, 11,000-fold)
T1 sequence (P14743 1-455): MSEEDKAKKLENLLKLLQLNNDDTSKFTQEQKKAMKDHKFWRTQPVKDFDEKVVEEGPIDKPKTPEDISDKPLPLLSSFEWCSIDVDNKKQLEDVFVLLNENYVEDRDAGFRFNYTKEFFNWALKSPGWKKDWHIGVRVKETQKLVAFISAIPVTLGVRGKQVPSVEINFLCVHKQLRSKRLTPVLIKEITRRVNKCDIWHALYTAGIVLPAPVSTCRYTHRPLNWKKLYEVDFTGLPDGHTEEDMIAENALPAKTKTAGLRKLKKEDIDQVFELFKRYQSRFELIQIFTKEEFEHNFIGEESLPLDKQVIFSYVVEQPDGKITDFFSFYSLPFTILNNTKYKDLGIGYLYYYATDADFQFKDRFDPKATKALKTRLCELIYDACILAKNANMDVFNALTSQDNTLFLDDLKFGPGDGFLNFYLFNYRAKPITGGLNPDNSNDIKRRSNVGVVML
Excerpt: Similar results were obtained using an 11,000-fold purified preparation of yeast NMT [Towler et al., Proc. Natl. Acad. Sci. USA 84, 2708-2712 (1987)].
Other illustrative examples of the oxy- and thio-substituted fatty acid analog substrate compounds of the invention were synthesized in Examples 6 to 14 and tested in Example 15 as substrates for the yeast NMT.
as §1

[4] = CoA ester, 40 μM iodinated peptide, 0.03% Triton X-100, FIG. 1

| Compound | Peptide Vm [3] | Acyl CoA Vm [3] | Km [3] | Elution Time [1] | other results |
| --- | --- | --- | --- | --- | --- |
| 11-(ethylthio)undecanoyl-GNAAS[^125 I]YRR ({11‑(ethylthio)undecanoyl}-GNAASY(125I)RR) [fatty acid analog acyl-peptide formed by NMT from compound A and iodinated peptide GNAASYRR] |  |  |  |  | elution earlier than corresponding myristoyl-peptide [1]: seven; elution earlier than corresponding myristoyl-peptide ([1]; listed as 11-(ethylthio)undecanoyl-GNAASYRR[^125 I]): 7 min |
| CCSCCCCCCCCCCC(=O)O [A, 11-(Ethylthio)undecanoic acid] | 98% | 130% | 1.4 µM | 18 min | Km for the analog relative to myristate [2, 4]: 1.5 times higher; Vmax for the analog relative to myristate [2, 4]: 3.5 times higher; Km ([2]; fatty acid or analog at 5 μM, peptide varied, read-out: Km of peptide substrate Gly-Asn-Ala-Ala-Ser-[125I]Tyr-Arg-Arg): 7 µM; ability to act as a substrate for myristoyl CoA: protein N-myristoyl transferase (NMT) ([2]; in words): leaves intact; substrate quality of CoA ester for wheat germ NMT compared with myristoyl CoA ([2]; in words): at least as good a substrate; apparent maximal velocity relative to myristic acid ([2]; peptide varied, fatty acid or analog at 5 μM): 2.3 times higher; Km compared with C14:0 fatty acid ([3]; 11,000-fold purified yeast NMT): indistinguishable; Vmax compared with C14:0 fatty acid ([3]; 11,000-fold purified yeast NMT): indistinguishable; hydrophobicity compared with myristic acid, in words [1]: decreases its hydrophobicity; also recorded: significantly different |
| CCOCCCCCCCCCCC(=O)O [B, 11-(Ethoxy)undecanoic acid] | 62% | 64% | 1.8 µM | 12 min |  |
| CCCCCCCCSCCCCC(=O)O [C, 5-(Octylthio)pentanoic acid] | 213% | 160% | 1.5 µM | 24 min |  |
| CCCCOCCCCCCCCCCC(=O)O [Compound I, 11-(1-Butoxy)undecanoic acid] | 25% | 80% | 1 µM | 19 min | effectiveness as NMT substrate, in words [3]: less effective |
| COCCCCCCCCCCC(=O)O [D, 11-(Methoxy)undecanoic acid] | 232% | 163% | 6.9 µM | 12 to 13 min |  |
| CCCCCCCCOCCCCC(=O)O [F, 5-(octyloxy)pentanoic acid] | 335% | 675% | 1.6 µM | 16 min |  |
| CCCSCCCCCCCCCC(=O)O [G, 10-(Propylthio)decanoic acid] | 245% | 250% | 1.5 µM | 18 min |  |
| CCCOCCCCCCCCCC(=O)O [H, 10-(Propoxy)decanoic acid] | 150% | 250% | 6.1 µM | 11 to 12 min |  |
| C#CCOCCCCCCCCCC(=O)O [J, 10-(2-Propynoxy)decanoic acid] | 200% | 320% | 6.5 µM | 9 min |  |
| CCCCCCCCCC(=O)O [decanoic acid, reference compound] |  |  |  |  | elution time of fatty acyl derivative of GNAAAARR ([1]; reverse phase HPLC): 9 min |
| CCCCCCCCCCCC(=O)O [dodecanoic acid, reference compound] |  |  |  |  | elution time of fatty acyl derivative of GNAAAARR ([1]; reverse phase HPLC): 18 min; elution time of fatty acyl derivative of GNAAS[125I]YRR ([1]; reverse phase HPLC, FIG. 2, text): 23 min |
| CCCCCCCCCCCCCCCC(=O)O [palmitic acid, reference compound] |  |  |  |  | elution time of fatty acyl derivative of GNAAAARR ([1]; reverse phase HPLC): 30 min |
